For one data set, the system named is MDA-MB-231 cells. Description: MTS cell viability/proliferation assay. Format: cell-based, human. The note with it: triple negative. An excerpt: Viable and dead cells were detected by the trypan blue exclusion assay, the viability and/or proliferation of cells a MTS assay was used [Akar U, et al. Autophagy 2008: 4:669-79].
Viable and dead cells were detected by the trypan blue exclusion assay, where viable cells (non-stained) with intact membrane are able to exclude the dye, while dead cells take up the coloring blue agent from the media. To quantitatively assess the viability and/or proliferation of cells a MTS assay was used, which incorporates a redox indicator that changes color in response to metabolic activity. To study cell viability in response to CaMK-III siRNA or control siRNA and plasmid encoding CaMK-III or empty plasmid transfection cells were seeded in 96-well plates at a density of 3×10^3 cells per well in 100 μl of medium. Next day the medium was removed and cells were transfected with siRNA at different concentrations in 100 μl of medium plus transfection mix. […] Plates were read at dual wavelengths (570-595 nm) in an Elisa plate reader (Kinetic Microplate Reader, Molecular Devices Corporation, Sunnyvale, Calif.).
(aka proliferation assay, in this case MTS assay was used. MTS, MTT, XTT all similar assays often used as cell viability/toxicity assay). […] Plates were read at 490 nm wavelength in an Elisa plate reader (Kinetic Microplate Reader, Molecular Devices Corporation, Sunnyvale, Calif.).

A further data set deals with eEF-2K. Nature of the data set: Western blot of MCF-7 cells treated with 5-NT. The class given is cell-based, human. The protocol: FIG. 5. 5-NT down-regulates critical pro-tumorigenic processes in ER(+) MCF-7 […] breast cancer cells. […] 5-NT also induces PARP cleavage and LC3-II. Methods: MCF7 cells were cultured at 37° C. in DMEM supplemented with 5% FBS in a humid incubator with 5% CO2. Following incubation with or without 5-NT cells were lysed according to standard protocols for western blotting. Blots were quantified as in FIG. 3.
FIG. 9. 5-NT down-regulates critical pro-tumorigenic processes in ER(+) MCF-7 breast cancer cells. […] 5-NT also induces PARP cleavage and LC3-II formation. Methods: MCF7 cells were cultured at 37° C. in DMEM supplemented with 5% FBS in a humid incubator with 5% CO2. Following incubation with or without 5-NT, cells were lysed according to standard protocols for western blotting. Blots were quantified as in FIG. 7.
(A western blot detects proteins with antibodies after separation by electrophoresis.)

A further data set concerns breast cancer cells. Nature of the data set: Cell viability assay, breast cancer cell panel or cell line not stated. The class given is cell-based, human. The note with it: incl. MDA-468, BT20, MDa-MB231, SKBR3, MDA-MB435, T47D, ZR75.1. The source says: (§1) (aka proliferation assay, in this case MTS assay was used. MTS, MTT, XTT all similar assays often used as cell viability/toxicity assay). Cell viability in response to compounds such as 5NT and KD06 was studied with a tetrazolium/formazan based assay (MTS, Celltiter 96 aqueous one solution cell proliferation assay, Promega, WI) [Akar U, Chaves-Reyez A, Barria g Tari A, Sanguino A, Kondo Y, Kondo S, Arun B, Lopez-Berestein G, Ozpolat B: Silencing of Bcl-2 expression by small interfering RNA induces autophagic cell death in MCF-7 breast cancer cells. Autophagy 2008, 4:669-679, Ozpolat 2007 MCR]. Cells were seeded in 96 wells plates at a density of 1.5 to 3.0×10^3 cells per well in 100 μl of medium. Next day the medium was removed and cells were treated with the drug in 100 μl of medium for 72 hours. Plates were read at 490 nm wavelength in an Elisa plate reader (Kinetic Microplate Reader, Molecular Devices Corporation, Sunnyvale, Calif.).

A further data set deals with MCF10A. Nature of the data set: MTS cell viability assay on normal breast epithelium. The class given is cell-based, human. The note with it: at IC50 to IC90 doses in breast cancer cells (MCF7).
Source text: as §1

Another data set concerns 5-HT1B/1D receptor. Description: cAMP levels. Format: cell-based. In general terms: cAMP levels reflect the balance of adenylyl cyclase and phosphodiesterase activity.
Another data set concerns MCF-7 cells. Description: Apoptosis / cell death in MCF-7 cells (Annexin V, FACS). The class given is cell-based, human. Here is the method:
Apoptosis was assessed by an Annexin V assay, monitoring PARP and caspase 9 cleavage by Western blot. To provide a comparative assay of apoptosis by Annexin V labeling, tumor cells (1×10^6) treated with CaMK-III siRNA or control siRNA for 24 to 96 hours were harvested and washed with PBS. Cells were resuspended in binding buffer and stained with Annexin V and propidium iodide (PI) according to the manufacturer's protocol (BD Pharmingen Annexin V kit, San Diego, Calif.). Positive cells were detected and quantified by FACS analysis.

The subject of data set [1] is 5-HT1B or 5-HT1D receptor. Nature of the data set: Effect on cell proliferation after siRNA knockdown of 5-HT1B or 5-HT1D receptor. The class given is cell-based.
A further data set has as its system MCF7 cells. Nature of the data set: MTS cell viability/proliferation assay. Format: cell-based, human.
Source text: (§2) Viable and dead cells were detected by the trypan blue exclusion assay, where viable cells (non-stained) with intact membrane are able to exclude the dye, while dead cells take up the coloring blue agent from the media. To quantitatively assess the viability and/or proliferation of cells a MTS assay was used, which incorporates a redox indicator that changes color in response to metabolic activity. To study cell viability in response to CaMK-III siRNA or control siRNA and plasmid encoding CaMK-III or empty plasmid transfection cells were seeded in 96-well plates at a density of 3×10^3 cells per well in 100 μl of medium. Next day the medium was removed and cells were transfected with siRNA at different concentrations in 100 μl of medium plus transfection mix. Two days after transfection, the medium was removed and replaced by 180 μl of medium plus 20 μl of MTS and the cells were incubated under normal conditions until the color changed. Plates were read at dual wavelengths (570-595 nm) in an Elisa plate reader (Kinetic Microplate Reader, Molecular Devices Corporation, Sunnyvale, Calif.).
as §1

The test system of another data set is MCF7/Dox resistant cells. Description: MTS cell viability/proliferation assay. The class given is cell-based, human.
Source text: as §2, §1

The next data set deals with MDA-MB-231 tumors. Nature of the data set: Orthotopic MDA-MB-231 xenograft breast cancer model. Format: in vivo, nude mice. The note with it: DOPC nanoliposomal, i.v., 5.8 mg/kg twice weekly (4 weeks). Here is the method:
FIG. 3. New role for triptan derivatives targeting the 5-HT1B receptor as a therapeutic modality for breast cancer. (A). […] Treatments, twice per week (4 weeks) were safe and effective. Methods: Phospholipid dioleoylphosphatidylcholine (DOPC) and triptan 5-NT were mixed in tertiary butanol at a lipid:5-NT ratio of 10:1 (w/w). Tween 20 was added at a ratio of 1:20 ratio (w/w) and the mixture lyophilized overnight. The powder was reconstituted in saline and sonicated for one minute. The liposome formulation was injected (100 μl) into the tail vein. (B). 5-NT induces apoptotic cell death of ER(+) MCF-7 cells. (C). […] (D). […] (E). The 5-HT1B receptor is over-expressed in triple negative highly aggressive, and metastatic breast cancer cells as well as drug resistant (i.e. tamoxifen and doxorubicin) breast cancer cells. Methods: Blots were visualized with a FluorChem 8900 imager and quantified by a densitometer using the Alpha Imager application program.
For in vivo delivery siRNA was incorporated into dioleoyl-sn-glycero-3-phosphocholine (DOPC). DOPC and siRNA were mixed in the presence of excess tertiary butanol at a ratio of 1:10 (w/w) siRNA/DOPC [Shaw L M. Methods Mol Biol 2005: 294:97-105]. Before in vivo administration, this preparation was hydrated with normal 0.9% saline in 100 μL for i.v injection per mouse. […]

The structures appear in SMILES notation.

In the case of `CCCCCCCCCOc1ccc2[nH]cc(CCN)c2c1` [5-NT, 5-nonylytryptamine], the inhibition of proliferation entry in the data set with MDA-MB-231 cells, with MCF7 cells (ER(+)) and in the data set with MCF7/Dox resistant cells was “inhibits proliferation” each time. Further, the “time to down-regulation of ERK/cyclin-D, Akt/mTor, IGF1-R, Src/Fak and eEF-2K” value in the data set with eEF-2K is not above 4 h. In addition, the “cell survival (O.D.) in a large panel of breast cancer cells” value in the data set with breast cancer cells is reported as “effective against almost all breast cancer cell lines”. Moreover, in the data set on MCF10A, the “toxicity against normal breast epithelium” value is reported as “not toxic”. Moreover, in the data set on 5-HT1B/1D receptor, the cAMP levels entry is “decrease cAMP levels”. For the same molecule, in the data set on MCF-7 cells, the induction of apoptosis entry was “induced robust apoptosis”. The “cell death in combination with doxorubicin” value with MCF-7 cells (with a low dose of doxorubicin) is recorded as “synergistic cell death”. In addition, the “effect of compound after knockdown of 5-HT1B or 5-HT1D receptor” value in data set [1] is recorded as “blunts the effect”. Further, the “selectivity for tumorigenic MCF-7 compared to non-tumorigenic MCF-10A” value in the data set with MCF7 cells is given as “much higher selectivity”. Besides, the tumor growth entry with MDA-MB-231 tumors is listed as “significantly inhibits growth”.

(Values after US9073851B2, “Compositions and methods for treating cancer” (Board of Regents, The University of Texas System, priority 2011, dated 2015).)
